Reference: patent publication US20240109850A1, “Covalent PPARG inverse-agonists” (Bayer Aktiengesellschaft, priority 2022, published 2024)

Biological target: T1, PPARG-LBD (Homo sapiens, UniProt P37231)
T1 construct: purchased ThermoFisher
T1 sequence (P37231 238-503 limits assumed): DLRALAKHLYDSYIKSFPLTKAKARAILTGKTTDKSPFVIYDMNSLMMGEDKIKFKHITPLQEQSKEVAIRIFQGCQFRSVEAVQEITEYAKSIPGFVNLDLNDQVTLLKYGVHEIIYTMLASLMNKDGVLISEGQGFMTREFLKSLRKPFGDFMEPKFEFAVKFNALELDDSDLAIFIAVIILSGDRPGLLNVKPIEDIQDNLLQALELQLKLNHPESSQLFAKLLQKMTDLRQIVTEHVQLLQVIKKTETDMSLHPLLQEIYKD
Experiment: Biochemical LanthaScreen TR-FRET PPAR gamma corepressor assay (PPARG-LBD / NCOR2 peptide)
Conditions: 2 h, read-out: Efficacy
Method: Biochemical Assay for Determining Inverse Agonist Activity of Compounds
A biochemical interaction assay measuring the ligand-dependent changes in interactions between the PPARG-LBD and a fluorescent peptide from the corepressor, NCOR2 (Smrt ID2, ThermoFisher), was performed to evaluate inverse agonist activity.
This assay was performed according to the manufacturers protocol (LanthaScreen TR-FRET PPAR gamma Corepressor Assay, ThermoFisher). […] After incubation the FRET signal was measured using an PHERAstar Plus Plate Reader (BMG). Every sample was tested in duplicate and mean values were used to calculate the EC50 values and efficacies of the compounds. A model of nonlinear regression curve fit was used for calculation.

With C=CC(=O)Nc1ccc2oc(-c3ccc(CC)cc3)nc2c1 [Example 24, N-[2-(4-Ethylphenyl)-1,3-benzoxazol-5-yl]prop-2-enamide] the Emax was 0%.
